The text below walks through data of US20230330254A1 (Regeneron Pharmaceuticals, Inc., priority 2022, published 2023).

Read-outs that look alike come from different tables or passages of the source. *1 amine or outer side, *2 acyl side, *3 side chain or, on linkers, in order; H or OH if unused. Where a SMILES comes first, the peptide text is derived from it. Side-chain parts run from the residue outwards. [ ]: non-standard residue; d: D form. The star is where a group is joined. PEG24 = NCCOCCOCCOCCOCCOCCOCCOCCOCCOCCOCCOCCOCCOCCOCCOCCOCCOCCOCCOCCOCCOCCOCCOCCOCCC(=O)O; Bip(2'-Et-4'-O(CH2)4NH2) = CCc1cc(OCCCCN[*:3])ccc1-c1ccc(C[C@H](N[*:1])C(=O)[*:2])cc1; Bip(2'-Et,4'-O(CH2)4N3) = CCc1cc(OCCCCN=[N+]=[N-])ccc1-c1ccc(C[C@H](N)C(=O)O)cc1; Bip(2'-Et,4'-O(CH2)4NH2) = CCc1cc(OCCCCN)ccc1-c1ccc(C[C@H](N)C(=O)O)cc1; Malonyl(2,2-Me2,histaminyl) = CC(C)(C(=O)NCCc1cnc[nH]1)C(=O)*; PEG12 = NCCOCCOCCOCCOCCOCCOCCOCCOCCOCCOCCOCCOCCC(=O)O; Nva(5-(3,5-Me2Ph)) = Cc1cc(C)cc(CCC[C@H](N)C(=O)O)c1; Ala(1H-tetrazol-5-yl) = N[C@@H](Cc1nnn[nH]1)C(=O)O; αMePhe(2-F) = C[C@](N)(Cc1ccccc1F)C(=O)O; X9 = O=C([C@@H]1CCN(CCc2cnc[nH]2)C1)*; X8 = O=C([C@H]1CCN(CCc2cnc[nH]2)C1)*; DBCO = C1#Cc2ccccc2N(*)Cc2ccccc21; Suc = O=C(CCC(=O)[*:2])[*:1]; X1 = O=C(CCCCCc1cnc[nH]1)*

Assay [1] concerns HEK293/CRE-Luc cells. The experiment in a line: Luciferase reporter assay, HEK293/CRE-Luc cells without GLP1R (Example 17). Format: cell-based, human. An excerpt:
(§1) To test the activity of GLP1R agonist payloads, GLP1R agonist linker-payloads (LPs), and anti-GLP1R antibody tethered drug conjugates (ATDCs) of the invention, a cell-based cAMP responsive luciferase reporter assay was developed. To generate the assay cell line, the firefly luciferase gene was placed under the control of a cAMP response element (CRE) located upstream of a minimal promoter and transfected into HEK293 cells and referred to herein as HEK293/CRE-Luc cells.
(§2) Three-fold serial dilutions of free payloads or LPs were prepared in 100% DMSO, transferred to fresh assay media, and added to the cells at a final constant DMSO concentration of 0.2%. The last well in the plate served as a blank control containing only the assay media and 0.2% DMSO (untreated well) and was plotted as a continuation of the 3-fold serial dilution. Four to six hours later, luciferase activity was determined after the addition of One-Glo™ reagent (Promega, Cat #E6130) to each well. Relative light units (RLUs) were measured on an Envision luminometer (PerkinElmer) and EC50 values were determined using a four-parameter logistic equation over a 12-point dose response curve (GraphPad Prism). The signal to noise (S/N) was determined by taking the ratio of the highest RLU on the dose response curve to the RLU in the untreated wells. Data was generated across several experiments (A-E) with M2361 serving as a reference standard in each experiment to calculate the payload relative potency ((M2361 EC50/payload EC50)*100)) and relative S/N ((payload SN/M2361 SN)*100)).
(In general: Reporter assays use an easily measured gene product as a stand-in for the process of interest.)

Assay [2] deals with human GLP1R (Homo sapiens, UniProt P43220). The experiment in a line: Luciferase reporter assay, HEK293/CRE-Luc/hGLP1R (Example 17). Format: cell-based. Set-up: engineered to express full-length human GLP1R, cynomolgus GLP1R; expressed in transfected cells; host or cells: HEK293/CRE-Luc. The note with it: for S/N: highest RLU / RLU of untreated wells; for Relative Potency (% M2361 EC50) / Relative Signal:Noise (% M2361): relative to M2361 of the same experiment.
Chain of human GLP1R (P43220 24-463): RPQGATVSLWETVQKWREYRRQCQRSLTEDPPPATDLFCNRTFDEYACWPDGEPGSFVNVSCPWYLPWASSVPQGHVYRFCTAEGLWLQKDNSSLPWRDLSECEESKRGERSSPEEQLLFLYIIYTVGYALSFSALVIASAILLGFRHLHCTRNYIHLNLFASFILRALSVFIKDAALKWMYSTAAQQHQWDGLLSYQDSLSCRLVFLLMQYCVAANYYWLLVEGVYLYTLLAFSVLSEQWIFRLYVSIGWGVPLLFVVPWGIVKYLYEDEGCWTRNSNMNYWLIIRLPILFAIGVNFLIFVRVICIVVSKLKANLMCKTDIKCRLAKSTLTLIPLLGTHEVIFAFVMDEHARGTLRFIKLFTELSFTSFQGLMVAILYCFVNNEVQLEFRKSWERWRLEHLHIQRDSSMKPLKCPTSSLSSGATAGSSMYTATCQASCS
Excerpt: as §1, §2

[3] abbreviates: HEK293/CRE-Luc cells without hGLP1R, payloads and linker-payloads.
Where [4] appears, read: HEK293/CRE-Luc cells without hGLP1R, payloads and linker-payloads, read-out: EC50.
[5] abbreviates: HEK293/CRE-Luc/hGLP1R, payloads and linker-payloads, experiments A-E, M2361 repeated in each, read-out: EC50.
Setting [6] is: text b1830, read-out: EC50 in HEK293/CRE-Luc/hGLP1R cells.
Setting [7] is: Table 28, reporter cells without GLP1R, read-out: HEK293/CRE-Luc EC50.
Setting [8] is: Table 29, reporter cells without GLP1R, read-out: HEK293/CRE-Luc EC50.

Take `CCc1cc(OCCCCN)ccc1-c1ccc(C[C@H](NC(=O)[C@H](CC(=O)O)NC(=O)[C@H](CO)NC(=O)[C@@H](NC(=O)[C@](C)(Cc2ccccc2F)NC(=O)[C@@H](NC(=O)CNC(=O)[C@H](Cc2nn[nH]n2)NC(=O)[C@@]2(C)CCN(CCc3cnc[nH]3)C2=O)[C@@H](C)O)[C@@H](C)O)C(=O)N[C@@H](CCCc2cc(C)cc(C)c2)C(N)=O)cc1` [P15]: the S/N in assay [1] (setting [3]) amounted to 1.1. Further, the EC50 in assay [1] (setting [4]) is greater than 200 nM. In addition, in assay [2] (HEK293/CRE-Luc/hGLP1R), the S/N is 67.8, the “Relative Potency (% M2361 EC50)” value is 40.3% and the “Relative Signal:Noise (% M2361)” value was determined as 103.1%.
On to `CCc1cc(OCCCCN)ccc1-c1ccc(C[C@H](NC(=O)[C@H](CC(=O)O)NC(=O)[C@H](CO)NC(=O)[C@@H](NC(=O)[C@](C)(Cc2ccccc2F)NC(=O)[C@@H](NC(=O)CNC(=O)[C@H](Cc2nn[nH]n2)NC(=O)[C@H]2CCN(CCc3cnc[nH]3)C2)[C@@H](C)O)[C@@H](C)O)C(=O)N[C@@H](CCCc2cc(C)cc(C)c2)C(N)=O)cc1` [P16] (X8-[Ala(1H-tetrazol-5-yl)]GT[αMePhe(2-F)]TSD[Bip(2'-Et,4'-O(CH2)4NH2)][Nva(5-(3,5-Me2Ph))]-NH2), for which the S/N in assay [1] (setting [3]) is 1.1. Moreover, the EC50 in assay [1] (setting [4]) was greater than 200 nM. In assay [2] (HEK293/CRE-Luc/hGLP1R), the S/N is reported as 55.1, the “Relative Potency (% M2361 EC50)” value is given as 2.5% and the “Relative Signal:Noise (% M2361)” value worked out at 83.8%. In assay [2] (setting [5]), the EC50 was determined as 0.217 nM.
Regarding `CCc1cc(OCCCCN=[N+]=[N-])ccc1-c1ccc(C[C@H](NC(=O)[C@H](CC(=O)O)NC(=O)[C@H](CO)NC(=O)[C@@H](NC(=O)[C@](C)(Cc2ccccc2F)NC(=O)[C@@H](NC(=O)CNC(=O)[C@@H](N)Cc2nn[nH]n2)[C@@H](C)O)[C@@H](C)O)C(=O)N[C@@H](CCCc2cc(C)cc(C)c2)C(N)=O)cc1` [M2383] (H-[Ala(1H-tetrazol-5-yl)]GT[αMePhe(2-F)]TSD[Bip(2'-Et,4'-O(CH2)4N3)][Nva(5-(3,5-Me2Ph))]-NH2), the S/N in assay [1] (setting [3]) turned out to be 1.8; in assay [2] (HEK293/CRE-Luc/hGLP1R) it was 293.3. The EC50 in assay [1] (setting [4]) was greater than 200 nM; in assay [2] (setting [5]), greater than 200 nM; in assay [2] (setting [6]), greater than 20 nM. The “Relative Potency (% M2361 EC50)” value in assay [2] (HEK293/CRE-Luc/hGLP1R) worked out at 0.0%. The “Relative Signal:Noise (% M2361)” value in assay [2] (HEK293/CRE-Luc/hGLP1R) was found to be 89.4%.
In the case of GIP [reference compound], the EC50 in assay [1] (setting [7]) was greater than 200 nM; in assay [1] (setting [8]) it was greater than 30 nM.
In assay [1] (setting [3]), `CCc1cc(OCCCCN)ccc1-c1ccc(C[C@H](NC(=O)[C@H](CC(=O)O)NC(=O)[C@H](CO)NC(=O)[C@@H](NC(=O)[C@](C)(Cc2ccccc2F)NC(=O)[C@@H](NC(=O)CNC(=O)[C@H](Cc2nn[nH]n2)NC(=O)[C@@H]2CCN(CCc3cnc[nH]3)C2)[C@@H](C)O)[C@@H](C)O)C(=O)N[C@@H](CCCc2cc(C)cc(C)c2)C(N)=O)cc1` [P17] (X9-[Ala(1H-tetrazol-5-yl)]GT[αMePhe(2-F)]TSD[Bip(2'-Et,4'-O(CH2)4NH2)][Nva(5-(3,5-Me2Ph))]-NH2) yielded a S/N of 1.0. Moreover, in assay [1] (setting [4]), the EC50 was greater than 200 nM.
As to `CCc1cc(OCCCCNC(=O)[C@H](CO)NC(=O)CNC(=O)CNC(=O)CNC(=O)CN)ccc1-c1ccc(C[C@H](NC(=O)[C@H](CC(=O)O)NC(=O)[C@H](CO)NC(=O)[C@@H](NC(=O)[C@](C)(Cc2ccccc2F)NC(=O)[C@@H](NC(=O)CNC(=O)[C@H](Cc2nn[nH]n2)NC(=O)C(C)(C)C(=O)NCCc2cnc[nH]2)[C@@H](C)O)[C@@H](C)O)C(=O)N[C@@H](CCCc2cc(C)cc(C)c2)C(N)=O)cc1` [M2739, G4S-P9], in assay [2] (HEK293/CRE-Luc/hGLP1R), the S/N amounted to 282.1, the “Relative Potency (% M2361 EC50)” value was determined as 193.4% and the “Relative Signal:Noise (% M2361)” value is given as 86.0%. Moreover, the EC50 in assay [2] (setting [5]) came out at 0.01 nM.
Take GCG [reference compound]: the EC50 is greater than 200 nM in assay [1] (setting [7]) and greater than 30 nM in assay [1] (setting [8]).
Consider `CCc1cc(OCCCCNC(=O)CCOCCOCCOCCOCCOCCOCCOCCOCCOCCOCCOCCOCCOCCOCCOCCOCCOCCOCCOCCOCCOCCOCCOCCOCCNC(=O)CCC(=O)N2Cc3ccccc3C#Cc3ccccc32)ccc1-c1ccc(C[C@H](NC(=O)[C@H](CC(=O)O)NC(=O)[C@H](CO)NC(=O)[C@@H](NC(=O)[C@](C)(Cc2ccccc2F)NC(=O)[C@@H](NC(=O)CNC(=O)[C@H](Cc2nn[nH]n2)NC(=O)CCCCCc2cnc[nH]2)[C@@H](C)O)[C@@H](C)O)C(=O)N[C@@H](CCCc2cc(C)cc(C)c2)C(N)=O)cc1` [M2944] (X1-[Ala(1H-tetrazol-5-yl)]GT[αMePhe(2-F)]TSD[Bip(2'-Et-4'-O(CH2)4NH2)]([PEG24-Suc-DBCO])[Nva(5-(3,5-Me2Ph))]-NH2), for which the EC50 in assay [2] (setting [5]) and in assay [2] (setting [6]) was greater than 20 nM throughout.
In the case of `CCc1cc(OCCCCNC(=O)[C@H](CO)NC(=O)CNC(=O)CNC(=O)CNC(=O)CNC(=O)[C@H](CO)NC(=O)CNC(=O)CNC(=O)CNC(=O)CNC(=O)CCC(=O)N2Cc3ccccc3C#Cc3ccccc32)ccc1-c1ccc(C[C@H](NC(=O)[C@H](CC(=O)O)NC(=O)[C@H](CO)NC(=O)[C@@H](NC(=O)[C@](C)(Cc2ccccc2F)NC(=O)[C@@H](NC(=O)CNC(=O)[C@H](Cc2nn[nH]n2)NC(=O)C(C)(C)C(=O)NCCc2cnc[nH]2)[C@@H](C)O)[C@@H](C)O)C(=O)N[C@@H](CCCc2cc(C)cc(C)c2)C(N)=O)cc1` [LP17, DIBAC- suc-G4S- G4S-P9], in assay [2] (HEK293/CRE-Luc/hGLP1R), the S/N was 258.0, the “Relative Potency (% M2361 EC50)” value was found to be 50.4% and the “Relative Signal:Noise (% M2361)” value is on record as 109.4%. Moreover, the EC50 in assay [2] (setting [5]) is 0.0542 nM.
In the case of GLP2 [reference compound], the results for the EC50 in assay [1] (setting [7]) and in assay [1] (setting [8]) were greater than 200 nM and greater than 30 nM, respectively.
As to `CCc1cc(OCCCCNC(=O)CCOCCOCCOCCOCCOCCOCCOCCOCCOCCOCCOCCOCCNC(=O)CCC(=O)N2Cc3ccccc3C#Cc3ccccc32)ccc1-c1ccc(C[C@H](NC(=O)[C@H](CC(=O)O)NC(=O)[C@H](CO)NC(=O)[C@@H](NC(=O)[C@](C)(Cc2ccccc2F)NC(=O)[C@@H](NC(=O)CNC(=O)[C@H](Cc2nn[nH]n2)NC(=O)C(C)(C)C(=O)NCCc2cnc[nH]2)[C@@H](C)O)[C@@H](C)O)C(=O)N[C@@H](CCCc2cc(C)cc(C)c2)C(N)=O)cc1` [LP3, DIBAC-suc-PEG12-P9] ({Malonyl(2,2-Me2,histaminyl)}-[Ala(1H-tetrazol-5-yl)]GT[αMePhe(2-F)]TSD[Bip(2'-Et-4'-O(CH2)4NH2)]([PEG12-Suc-DBCO])[Nva(5-(3,5-Me2Ph))]-NH2), in assay [2] (HEK293/CRE-Luc/hGLP1R), the S/N is listed as 293.2, the “Relative Potency (% M2361 EC50)” value is recorded as 28.0% and the “Relative Signal:Noise (% M2361)” value is on record as 124.3%. Moreover, the EC50 in assay [2] (setting [5]) amounted to 0.0976 nM.
Take `CCc1cc(OCCCCNC(=O)CCOCCOCCOCCOCCOCCOCCOCCOCCOCCOCCOCCOCCOCCOCCOCCOCCOCCOCCOCCOCCOCCOCCOCCOCCNC(=O)CCC(=O)N2Cc3ccccc3-c3nn[nH]c3-c3ccccc32)ccc1-c1ccc(C[C@H](NC(=O)[C@H](CC(=O)O)NC(=O)[C@H](CO)NC(=O)[C@@H](NC(=O)[C@](C)(Cc2ccccc2F)NC(=O)[C@@H](NC(=O)CNC(=O)[C@H](Cc2nn[nH]n2)NC(=O)C(C)(C)C(=O)NCCc2cnc[nH]2)[C@@H](C)O)[C@@H](C)O)C(=O)N[C@@H](CCCc2cc(C)cc(C)c2)C(C)=O)cc1` [M2547]: in assay [2] (HEK293/CRE-Luc/hGLP1R), the S/N is recorded as 267.8, the “Relative Potency (% M2361 EC50)” value amounted to 38.6% and the “Relative Signal:Noise (% M2361)” value came to 81.7%.
